Assays:
Myzus persicae = Myzus persicae test (cabbage leaf dip); type: in vivo; settings: concentration 20 ppm; peach aphid on cabbage leaves (Brassica oleracea), dipped
Experimental: To produce a suitable preparation of active compound, one part by weight of active compound is mixed with the stated amounts of solvent and emulsifier, and the concentrate is diluted with emulsifier-containing water to the desired concentration.
Cabbage leaves (Brassica oleracea) which are heavily infested by the peach aphid (Myzus persicae) are treated by being dipped into the preparation of active compound of the desired concentration.
After the desired period of time, the kill in % is determined. 100% means that all aphids have been killed; 0% means that none of the aphids have been killed.

Plutella xylostella = Plutella xylostella test (cabbage leaf dip); type: in vivo; settings: concentration 0.16 ppm; diamond back moth caterpillars on dipped cabbage leaves
Experimental: To produce a suitable preparation of active compound, 1 part by weight of active compound is mixed with the stated amounts of solvent and emulsifier, and the concentrate is diluted with emulsifier-containing Water to the desired concentration.
Cabbage leaves (Brassica oleracea) are treated by being dipped into the preparation of active compound of the desired concentration and are populated with caterpillars of the diamond back moth (Plutella xylostella) while the leaves are still moist.
After the desired period of time, the kill in % is determined. 100% means that all caterpillars have been killed; 0% means that none of the caterpillars have been killed.

In the case of CC[S+]([O-])c1c(C#N)nn(-c2c(Cl)cc(C(F)(F)F)cc2Cl)c1N (centres unmarked) [Ethiprole, ethiprole], the “Kill in % after 6 d” value (Myzus persicae) is reported as 10% and the “Kill in % after 6 d” value (Plutella xylostella) is reported as 0%.

Source: patent US20080287435A1, “Active Ingredient Combinations Having Insecticide and Acaricide Properties” (Bayer CropScience AG, priority 2005, published 2008)
